Experimental data as given in patent publication US20060229433A1, “Modified antiviral peptides with increased activity and cell membrane affinity” (priority 2003, published 2006).
Where “and” joins values, the source holds several entries; their conditions need not be identical. Identical values can stand only once. Square brackets hold non-standard residues; d marks the D form. Peptide text beside a SMILES is read from it. Ava = NCCCCC(=O)O

Columns and labels:
Format in all cases: cell-based
[1] = system: HIV-1 NL 4-3; test: HIV-1 infection of C8166 cells (syncytia formation, p24 ELISA) with HIV-1 NL 4-3; conditions: for Day 7 syncitia formed / P 24: Table 6; for P 24: Day 7
Procedure, shortened: (§1)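 Infection was read out as syncytia and as cell-free p24 in supernatants (ELISA) from C8166 cells that received HIV-1 (1000 TCID50/ml, 1 h, 37 °C) after a 1 h peptide pretreatment. Peptide stayed on before, during and after adsorption. Toxicity was checked by daily trypan-blue counts.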

[2] = system: HIV-1 NDK; test: HIV-1 infection of C8166 cells (syncytia formation, p24 ELISA) with HIV-1 NDK; set-up: key to syncitia formed, Day 4 / syncitia formed, Day 5 / syncitia formed, Day 6 / syncitia formed, Day 7: ++, +, (+), (+)− and − represent decreasing numbers of syncitia formed; ++, +, (+), (+)− and − represent decreasing numbers of syncitia formed; ++, +, (+), (+)− and − represent decreasing numbers of syncitia formed; ++, +, (+), (+)− and − represent decreasing numbers of syncitia formed; ++, +, (+), (+)− and − represent decreasing numbers of syncitia formed; conditions: for P 24: P 24 after Day 7
Procedure, shortened: as §1

[3] = system: HIV-1 NL 4-3; test: HIV-1 infection of C8166 cells (syncytia formation, p24 ELISA) with HIV-1 NL 4-3; set-up: key: ++, +, (+), (+)− and − represent decreasing numbers of syncitia formed; ++, +, (+), (+)− and − represent decreasing numbers of syncitia formed; ++, +, (+), (+)− and − represent decreasing numbers of syncitia formed; ++, +, (+), (+)− and − represent decreasing numbers of syncitia formed; ++, +, (+), (+)− and − represent decreasing numbers of syncitia formed; conditions: Table 6
Procedure, shortened: as §1

[4] = C8166 cells, HIV-1 subtype B NL 4-3, Table 9, two lines = tested twice, 8 days apart

SMILES: C[C@H](NC(=O)[C@H](CCCNC(=N)N)NC(=O)CNC(=O)[C@@H]1CCCN1C(=O)CN)C(=O)N[C@@H](Cc1ccccc1)C(=O)NCCCCC(=O)O [SPC3 monomer valeric acid, GPGRAF-NHCH2CH2CH2CH2COOH] (H-GPGRAF[Ava]-OH; N-terminus assumed)
- Day 7 syncitia formed ([1]; 0.005 μM): ++/T
- Day 7 syncitia formed ([1]; 0.01 μM): ++/T
- IC50 ([1]; C8166 cells, HIV-1 subtype B NL 4-3, Table 3): 20 nM
- IC50 [1, 4]: 50 nM
- IC100 [1, 4]: 5 µM
- P 24 ([1]; 0.005 μM): 23810 pg/mL
- P 24 ([1]; 0.01 μM): 21810 pg/mL
- P 24 ([1]; 0.5 μM): 1840 pg/mL and 2830 pg/mL
- P 24 ([1]; 1 μM): 325 pg/mL and 445 pg/mL
- P 24 ([1]; 5 μM): 3 pg/mL
- syncitia formed, Day 4 ([2]; 0.005 μM): −
- syncitia formed, Day 5 ([2]; 0.005 μM): +
- syncitia formed, Day 6 ([2]; 0.005 μM): ++
- syncitia formed, Day 7 ([2]; 0.005 μM): ++/T
- P 24 ([2]; 0.005 μM): 23810 pg/mL
- syncitia formed, Day 4 ([2]; 0.01 μM): −
- syncitia formed, Day 5 ([2]; 0.01 μM): +
- syncitia formed, Day 6 ([2]; 0.01 μM): ++
- syncitia formed, Day 7 ([2]; 0.01 μM): ++/T
- P 24 ([2]; 0.01 μM): 21810 pg/mL
- syncitia formed, Day 4 ([2]; 0.05 μM): −
- syncitia formed, Day 5 ([2]; 0.05 μM): +
- syncitia formed, Day 6 ([2]; 0.05 μM): ++
- syncitia formed, Day 7 ([2]; 0.05 μM): ++
- P 24 ([2]; 0.05 μM): 23810 pg/mL and 21810 pg/mL
- syncitia formed, Day 4 ([2]; 0.1 μM): −
- syncitia formed, Day 5 ([2]; 0.1 μM): +
- syncitia formed, Day 6 ([2]; 0.1 μM): ++
- syncitia formed, Day 7 ([2]; 0.1 μM): ++
- P 24 ([2]; 0.1 μM): 11810 pg/mL and 15307 pg/mL
- syncitia formed, Day 4 ([2]; 0.5 μM): −
- syncitia formed, Day 5 ([2]; 0.5 μM): −
- syncitia formed, Day 6 ([2]; 0.5 μM): +
- syncitia formed, Day 7 ([2]; 0.5 μM): ++
- P 24 ([2]; 0.5 μM): 11840 pg/mL and 12240 pg/mL
- syncitia formed, Day 4 ([2]; 1 μM): −
- syncitia formed, Day 5 ([2]; 1 μM): −
- syncitia formed, Day 6 ([2]; 1 μM): −
- syncitia formed, Day 7 ([2]; 1 μM): (+)
- syncitia formed, Day 4 ([2]; 5 μM): −
- syncitia formed, Day 5 ([2]; 5 μM): −
- syncitia formed, Day 6 ([2]; 5 μM): −
- syncitia formed, Day 7 ([2]; 5 μM): −
- IC50 ([2]; HIV 1 NDK, Table 10): 200 nM
- IC100 ([2]; HIV 1 NDK, Table 10): 5 µM
- Day 4 syncitia formed ([3]; 0.005 μM): −
- Day 5 syncitia formed ([3]; 0.005 μM): +
- Day 6 syncitia formed ([3]; 0.005 μM): ++
- Day 4 syncitia formed ([3]; 0.01 μM): −
- Day 5 syncitia formed ([3]; 0.01 μM): +
- Day 6 syncitia formed ([3]; 0.01 μM): ++
- Day 4 syncitia formed ([3]; 0.05 μM): −
- Day 5 syncitia formed ([3]; 0.05 μM): +
- Day 6 syncitia formed ([3]; 0.05 μM): ++
- Day 7 syncitia formed ([3]; 0.05 μM): ++
- Day 4 syncitia formed ([3]; 0.1 μM): −
- Day 5 syncitia formed ([3]; 0.1 μM): (+)
- Day 6 syncitia formed ([3]; 0.1 μM): + and ++
- Day 7 syncitia formed ([3]; 0.1 μM): ++
- Day 4 syncitia formed ([3]; 0.5 μM): −
- Day 5 syncitia formed ([3]; 0.5 μM): −
- Day 6 syncitia formed ([3]; 0.5 μM): (+)
- Day 7 syncitia formed ([3]; 0.5 μM): +
- Day 4 syncitia formed ([3]; 1 μM): −
- Day 5 syncitia formed ([3]; 1 μM): −
- Day 6 syncitia formed ([3]; 1 μM): −
- Day 7 syncitia formed ([3]; 1 μM): (+)
- Day 4 syncitia formed ([3]; 5 μM): −
- Day 5 syncitia formed ([3]; 5 μM): −
- Day 6 syncitia formed ([3]; 5 μM): −
- Day 7 syncitia formed ([3]; 5 μM): −
